Results: the kinase profiling compilation of Christmann-Franck et al. (2016)

What was measured:
Assay in all cases: radiometric filter-binding kinase assay, Kinaseprofiler
DAPK3 (human) = DAPK3 (human) (UniProt O43293); conditions: ATP 15 µM
FES (human) = FES (human) (UniProt P07332); conditions: ATP 45 µM
MELK (human) = MELK (human) (UniProt Q14680); conditions: ATP 45 µM
STK10 (human) = STK10 (human) (UniProt O94804); conditions: ATP 200 µM
CDK2 CCNE1 (human) = CDK2 CCNE1 (human) (UniProt P24941+P24864); conditions: ATP 120 µM
PRKCQ (human) = PRKCQ (human) (UniProt Q04759); conditions: ATP 15 µM
PRKCQ (human), sequence (Q04759 whole entry, looked up): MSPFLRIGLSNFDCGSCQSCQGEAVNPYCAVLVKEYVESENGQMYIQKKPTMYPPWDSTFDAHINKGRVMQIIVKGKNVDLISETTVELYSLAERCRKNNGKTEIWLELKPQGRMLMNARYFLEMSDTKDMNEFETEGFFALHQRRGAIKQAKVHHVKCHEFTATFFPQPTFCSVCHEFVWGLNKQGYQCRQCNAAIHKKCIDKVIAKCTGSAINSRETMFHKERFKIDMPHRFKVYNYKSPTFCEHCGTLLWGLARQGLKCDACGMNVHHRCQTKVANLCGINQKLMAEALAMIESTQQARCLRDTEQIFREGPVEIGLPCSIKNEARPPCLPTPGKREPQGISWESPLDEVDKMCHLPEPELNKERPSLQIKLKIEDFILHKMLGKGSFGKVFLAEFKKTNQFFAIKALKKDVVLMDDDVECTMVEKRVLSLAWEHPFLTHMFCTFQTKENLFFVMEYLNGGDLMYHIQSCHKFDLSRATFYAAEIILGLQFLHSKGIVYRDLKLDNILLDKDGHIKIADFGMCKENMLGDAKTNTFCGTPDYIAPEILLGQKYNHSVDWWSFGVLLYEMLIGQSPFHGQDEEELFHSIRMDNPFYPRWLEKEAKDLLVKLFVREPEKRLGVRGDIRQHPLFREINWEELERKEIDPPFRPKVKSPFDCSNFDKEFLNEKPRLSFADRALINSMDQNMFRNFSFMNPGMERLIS

PRKX (human) = PRKX (human) (UniProt P51817); conditions: ATP 200 µM
PDGFRA (human) = PDGFRA (human) (UniProt P16234); conditions: ATP 120 µM
MAPK10 (human) = MAPK10 (human) (UniProt P53779); conditions: ATP 10 µM
MAPK10 (human), sequence (P53779 whole entry, looked up): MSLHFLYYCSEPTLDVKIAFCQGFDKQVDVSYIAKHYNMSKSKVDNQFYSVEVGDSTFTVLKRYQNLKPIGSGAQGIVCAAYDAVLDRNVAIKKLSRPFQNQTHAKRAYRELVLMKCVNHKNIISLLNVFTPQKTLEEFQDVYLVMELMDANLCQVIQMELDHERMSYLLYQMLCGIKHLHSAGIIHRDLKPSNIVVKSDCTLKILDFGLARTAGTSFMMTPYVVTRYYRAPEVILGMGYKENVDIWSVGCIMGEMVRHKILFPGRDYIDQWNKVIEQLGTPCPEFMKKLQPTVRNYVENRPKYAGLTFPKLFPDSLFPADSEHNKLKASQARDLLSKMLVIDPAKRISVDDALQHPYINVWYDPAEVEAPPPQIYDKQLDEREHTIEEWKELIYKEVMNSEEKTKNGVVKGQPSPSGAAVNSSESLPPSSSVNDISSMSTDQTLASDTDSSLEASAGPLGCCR

PAK6 (human) = PAK6 (human) (UniProt Q9NQU5); conditions: ATP 10 µM
CSNK1G1 (human) = CSNK1G1 (human) (UniProt Q9HCP0); conditions: ATP 15 µM
IRAK1 (human) = IRAK1 (human) (UniProt P51617); conditions: ATP 45 µM
PLK3 (human) = PLK3 (human) (UniProt Q9H4B4); conditions: ATP 70 µM
LYN (human) = LYN (human) (UniProt P07948); conditions: ATP 70 µM
RPS6KA1 KD1 KD2 (human) = RPS6KA1 KD1 KD2 (human) (UniProt Q15418); conditions: ATP 45 µM
RPS6KA1 KD1 KD2 (human), sequence (Q15418 whole entry, looked up): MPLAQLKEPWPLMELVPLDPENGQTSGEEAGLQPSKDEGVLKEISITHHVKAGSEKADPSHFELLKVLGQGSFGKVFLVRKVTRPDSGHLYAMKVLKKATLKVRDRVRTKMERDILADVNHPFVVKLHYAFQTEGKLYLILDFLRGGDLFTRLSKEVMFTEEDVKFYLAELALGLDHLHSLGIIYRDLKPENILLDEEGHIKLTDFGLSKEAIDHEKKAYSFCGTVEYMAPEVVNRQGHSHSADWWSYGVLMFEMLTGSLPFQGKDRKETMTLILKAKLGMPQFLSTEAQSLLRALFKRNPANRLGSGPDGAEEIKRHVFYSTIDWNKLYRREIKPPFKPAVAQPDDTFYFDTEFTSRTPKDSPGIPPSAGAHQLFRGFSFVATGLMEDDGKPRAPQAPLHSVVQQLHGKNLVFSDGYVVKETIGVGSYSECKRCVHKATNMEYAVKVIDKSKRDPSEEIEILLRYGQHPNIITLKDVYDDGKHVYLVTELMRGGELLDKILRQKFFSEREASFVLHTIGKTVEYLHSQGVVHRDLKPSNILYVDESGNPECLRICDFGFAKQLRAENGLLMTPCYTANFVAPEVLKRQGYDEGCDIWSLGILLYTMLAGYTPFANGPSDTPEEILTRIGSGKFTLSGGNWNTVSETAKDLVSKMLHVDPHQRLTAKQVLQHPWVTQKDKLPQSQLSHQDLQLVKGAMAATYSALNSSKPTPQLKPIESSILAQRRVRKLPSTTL

MUSK (human) = MUSK (human) (UniProt O15146); conditions: ATP 155 µM
NEK3 (human) = NEK3 (human) (UniProt P51956); conditions: ATP 120 µM
PASK (human) = PASK (human) (UniProt Q96RG2); conditions: ATP 15 µM
SRC (human) = SRC (human) (UniProt P12931); conditions: ATP 200 µM
FYN (human) = FYN (human) (UniProt P06241); conditions: ATP 70 µM
FYN (human), sequence (P06241 whole entry, looked up): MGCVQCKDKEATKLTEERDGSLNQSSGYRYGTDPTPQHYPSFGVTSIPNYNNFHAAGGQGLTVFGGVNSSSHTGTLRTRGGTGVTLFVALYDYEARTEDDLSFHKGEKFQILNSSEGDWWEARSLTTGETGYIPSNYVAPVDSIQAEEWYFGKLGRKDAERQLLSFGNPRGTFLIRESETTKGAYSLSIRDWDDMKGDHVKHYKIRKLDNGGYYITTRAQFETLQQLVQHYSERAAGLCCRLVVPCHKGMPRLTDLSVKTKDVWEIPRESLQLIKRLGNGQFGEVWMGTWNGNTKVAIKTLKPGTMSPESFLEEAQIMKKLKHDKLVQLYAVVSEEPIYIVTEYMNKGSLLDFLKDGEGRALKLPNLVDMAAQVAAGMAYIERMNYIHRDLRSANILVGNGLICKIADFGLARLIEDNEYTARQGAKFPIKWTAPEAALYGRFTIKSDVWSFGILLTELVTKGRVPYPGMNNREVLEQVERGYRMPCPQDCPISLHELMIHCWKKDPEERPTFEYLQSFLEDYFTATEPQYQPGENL

EPHB3 (human) = EPHB3 (human) (UniProt P54753); conditions: ATP 90 µM
EPHB3 (human), sequence (P54753 whole entry, looked up): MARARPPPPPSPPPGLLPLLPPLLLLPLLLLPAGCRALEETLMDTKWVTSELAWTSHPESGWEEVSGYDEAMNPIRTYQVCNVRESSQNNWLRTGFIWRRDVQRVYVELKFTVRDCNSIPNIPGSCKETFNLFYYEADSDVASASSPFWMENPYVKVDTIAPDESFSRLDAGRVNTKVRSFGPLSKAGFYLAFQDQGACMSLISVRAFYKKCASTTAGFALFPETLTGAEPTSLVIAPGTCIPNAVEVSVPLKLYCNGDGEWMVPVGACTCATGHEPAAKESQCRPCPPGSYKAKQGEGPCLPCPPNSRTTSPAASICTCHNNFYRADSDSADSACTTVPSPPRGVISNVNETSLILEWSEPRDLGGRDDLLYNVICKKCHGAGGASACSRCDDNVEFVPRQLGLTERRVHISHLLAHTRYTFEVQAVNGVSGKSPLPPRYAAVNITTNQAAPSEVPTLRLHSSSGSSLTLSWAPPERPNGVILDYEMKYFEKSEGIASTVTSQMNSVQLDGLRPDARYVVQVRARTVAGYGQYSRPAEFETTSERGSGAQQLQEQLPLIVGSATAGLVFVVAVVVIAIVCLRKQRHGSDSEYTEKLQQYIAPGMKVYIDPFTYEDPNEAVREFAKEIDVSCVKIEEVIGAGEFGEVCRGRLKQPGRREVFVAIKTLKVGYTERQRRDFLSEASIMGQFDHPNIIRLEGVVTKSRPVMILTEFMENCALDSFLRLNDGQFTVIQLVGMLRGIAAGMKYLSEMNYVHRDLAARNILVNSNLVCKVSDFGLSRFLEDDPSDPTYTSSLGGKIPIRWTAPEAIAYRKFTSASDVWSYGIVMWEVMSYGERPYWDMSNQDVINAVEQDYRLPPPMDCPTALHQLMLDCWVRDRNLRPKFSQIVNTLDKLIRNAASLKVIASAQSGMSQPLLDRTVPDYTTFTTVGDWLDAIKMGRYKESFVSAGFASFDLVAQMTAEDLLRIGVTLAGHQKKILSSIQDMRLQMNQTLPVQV

PAK4 (human) = PAK4 (human) (UniProt O96013); conditions: ATP 10 µM
PAK4 (human), sequence (O96013 whole entry, looked up): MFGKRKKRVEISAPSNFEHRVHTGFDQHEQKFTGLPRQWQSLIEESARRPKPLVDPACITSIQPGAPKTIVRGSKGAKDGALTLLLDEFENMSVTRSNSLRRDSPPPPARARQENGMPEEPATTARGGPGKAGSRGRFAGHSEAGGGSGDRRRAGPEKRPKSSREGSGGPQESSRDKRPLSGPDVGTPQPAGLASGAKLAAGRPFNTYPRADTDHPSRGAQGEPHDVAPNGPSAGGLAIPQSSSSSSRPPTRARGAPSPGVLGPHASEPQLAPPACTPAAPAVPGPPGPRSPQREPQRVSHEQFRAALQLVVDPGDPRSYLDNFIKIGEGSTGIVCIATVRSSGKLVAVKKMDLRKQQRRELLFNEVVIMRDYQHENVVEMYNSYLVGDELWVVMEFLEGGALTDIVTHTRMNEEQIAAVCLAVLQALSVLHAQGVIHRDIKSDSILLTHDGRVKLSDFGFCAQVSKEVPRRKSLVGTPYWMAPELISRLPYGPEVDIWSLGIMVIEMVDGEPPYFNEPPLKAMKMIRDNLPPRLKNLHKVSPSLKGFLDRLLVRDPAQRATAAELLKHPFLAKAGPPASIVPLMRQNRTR

ABL2 (human) = ABL2 (human) (UniProt P42684); conditions: ATP 45 µM
PKN2 (human) = PKN2 (human) (UniProt Q16513); conditions: ATP 15 µM
PKN2 (human), sequence (Q16513 whole entry, looked up): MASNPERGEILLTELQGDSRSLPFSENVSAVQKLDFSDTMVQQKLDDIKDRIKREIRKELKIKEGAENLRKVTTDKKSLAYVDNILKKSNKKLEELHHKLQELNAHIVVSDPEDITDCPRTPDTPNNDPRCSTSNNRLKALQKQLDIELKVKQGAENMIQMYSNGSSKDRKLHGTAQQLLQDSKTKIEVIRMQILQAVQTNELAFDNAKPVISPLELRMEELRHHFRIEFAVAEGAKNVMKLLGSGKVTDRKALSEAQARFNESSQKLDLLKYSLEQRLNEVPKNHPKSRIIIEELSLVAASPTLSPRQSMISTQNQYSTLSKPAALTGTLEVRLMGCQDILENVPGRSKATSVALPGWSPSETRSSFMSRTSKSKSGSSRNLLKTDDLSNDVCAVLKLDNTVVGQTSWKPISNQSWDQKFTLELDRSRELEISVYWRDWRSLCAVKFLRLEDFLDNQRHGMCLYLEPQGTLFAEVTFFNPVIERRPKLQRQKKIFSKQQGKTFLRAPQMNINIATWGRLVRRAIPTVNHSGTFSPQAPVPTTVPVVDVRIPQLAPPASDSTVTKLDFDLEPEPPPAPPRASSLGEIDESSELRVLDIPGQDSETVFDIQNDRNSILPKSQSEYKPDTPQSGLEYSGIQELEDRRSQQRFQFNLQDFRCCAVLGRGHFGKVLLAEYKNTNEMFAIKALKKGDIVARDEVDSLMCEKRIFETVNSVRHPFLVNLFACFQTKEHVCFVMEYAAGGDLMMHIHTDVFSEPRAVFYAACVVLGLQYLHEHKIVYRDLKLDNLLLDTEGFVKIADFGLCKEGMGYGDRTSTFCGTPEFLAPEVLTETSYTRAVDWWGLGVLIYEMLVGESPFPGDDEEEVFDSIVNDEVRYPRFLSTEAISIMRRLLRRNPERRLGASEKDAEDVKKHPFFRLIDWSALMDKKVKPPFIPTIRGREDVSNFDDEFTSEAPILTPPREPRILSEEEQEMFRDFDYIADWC

MYLK (human) = MYLK (human) (UniProt Q15746); conditions: ATP 70 µM
FLT1 (human) = FLT1 (human) (UniProt P17948); conditions: ATP 200 µM
GRK7 (human) = GRK7 (human) (UniProt Q8WTQ7); conditions: ATP 15 µM
PRKCB1 (human) = PRKCB1 (human) (UniProt P05771); conditions: ATP 10 µM
GRK5 (human) = GRK5 (human) (UniProt P34947); conditions: ATP 15 µM
[1] = target: CSNK2A1 CSNK2B CSNK2A2 (human) (UniProt P19784+P68400+P67870); conditions: ATP 15 µM
PLK1 (human) = PLK1 (human) (UniProt P53350); conditions: ATP 70 µM
MAPK3 (human) = MAPK3 (human) (UniProt P27361); conditions: ATP 70 µM
MAPK12 (human) = MAPK12 (human) (UniProt P53778); conditions: ATP 15 µM

O=C1Nc2ccccc2/C1=C1\Nc2ccccc2\C1=N/O
residual activity (DAPK3 (human); compound 1.0 µM): 81% | residual activity (DAPK3 (human); compound 10.0 µM): 37% | residual activity (FES (human); compound 1.0 µM): 72% | residual activity (FES (human); compound 10.0 µM): 30% | residual activity (MELK (human); compound 1.0 µM): 15% | residual activity (MELK (human); compound 10.0 µM): 7% | residual activity (STK10 (human); compound 1.0 µM): 66% | residual activity (STK10 (human); compound 10.0 µM): 71% | residual activity (CDK2 CCNE1 (human); compound 1.0 µM): 6% | residual activity (CDK2 CCNE1 (human); compound 10.0 µM): -1% | residual activity (PRKCQ (human); compound 1.0 µM): 81% | residual activity (PRKCQ (human); compound 10.0 µM): 55% | residual activity (PRKX (human); compound 1.0 µM): 48% | residual activity (PRKX (human); compound 10.0 µM): 33% | residual activity (PDGFRA (human); compound 1.0 µM): 87% | residual activity (PDGFRA (human); compound 10.0 µM): 37% | residual activity (MAPK10 (human); compound 1.0 µM): 7% | residual activity (MAPK10 (human); compound 10.0 µM): -2% | residual activity (PAK6 (human); compound 1.0 µM): 63% | residual activity (PAK6 (human); compound 10.0 µM): 37% | residual activity (CSNK1G1 (human); compound 1.0 µM): 57% | residual activity (CSNK1G1 (human); compound 10.0 µM): 19% | residual activity (IRAK1 (human); compound 1.0 µM): 60% | residual activity (IRAK1 (human); compound 10.0 µM): 11% | residual activity (PLK3 (human); compound 1.0 µM): 96% | residual activity (PLK3 (human); compound 10.0 µM): 91% | residual activity (LYN (human); compound 1.0 µM): 8% | residual activity (LYN (human); compound 10.0 µM): 2% | residual activity (RPS6KA1 KD1 KD2 (human); compound 1.0 µM): 40% | residual activity (RPS6KA1 KD1 KD2 (human); compound 10.0 µM): 6% | residual activity (MUSK (human); compound 1.0 µM): 58% | residual activity (MUSK (human); compound 10.0 µM): 5% | residual activity (NEK3 (human); compound 1.0 µM): 86% | residual activity (NEK3 (human); compound 10.0 µM): 94% | residual activity (PASK (human); compound 1.0 µM): 112% | residual activity (PASK (human); compound 10.0 µM): 76% | residual activity (SRC (human); compound 1.0 µM): 35% | residual activity (SRC (human); compound 10.0 µM): 5% | residual activity (FYN (human); compound 1.0 µM): 5% | residual activity (FYN (human); compound 10.0 µM): 0% | residual activity (EPHB3 (human); compound 1.0 µM): 105% | residual activity (EPHB3 (human); compound 10.0 µM): 103% | residual activity (PAK4 (human); compound 1.0 µM): 55% | residual activity (PAK4 (human); compound 10.0 µM): 14% | residual activity (ABL2 (human); compound 1.0 µM): 30% | residual activity (ABL2 (human); compound 10.0 µM): 28% | residual activity (PKN2 (human); compound 1.0 µM): 91% | residual activity (PKN2 (human); compound 10.0 µM): 48% | residual activity (MYLK (human); compound 1.0 µM): 46% | residual activity (MYLK (human); compound 10.0 µM): 13% | residual activity (FLT1 (human); compound 1.0 µM): 1% | residual activity (FLT1 (human); compound 10.0 µM): 0% | residual activity (GRK7 (human); compound 1.0 µM): 73% | residual activity (GRK7 (human); compound 10.0 µM): 18% | residual activity (PRKCB1 (human); compound 1.0 µM): 93% | residual activity (PRKCB1 (human); compound 10.0 µM): 94% | residual activity (GRK5 (human); compound 1.0 µM): 92% | residual activity (GRK5 (human); compound 10.0 µM): 58% | residual activity ([1]; compound 1.0 µM): 112% | residual activity ([1]; compound 10.0 µM): 78% | residual activity (PLK1 (human); compound 1.0 µM): 83% | residual activity (PLK1 (human); compound 10.0 µM): 103% | residual activity (MAPK3 (human); compound 1.0 µM): 114% | residual activity (MAPK3 (human); compound 10.0 µM): 101% | residual activity (MAPK12 (human); compound 1.0 µM): 95% | residual activity (MAPK12 (human); compound 10.0 µM): 84%
